Results taken from patent US9616051B2, “Drug targets to overcome de novo drug-resistance in multiple myeloma” (H. Lee Moffitt Cancer Center and Research Institute, Inc., priority 2008, dated 2017).
“Also recorded” adds a separate entry of the source. Where two headings read alike, the source gives them in different places.

Legend:
topo IIα [1] = molecular target: T1, topo IIα (Homo sapiens, UniProt P11388); experiment: Immunofluorescence microscopy of intracellular location of topo IIα; format: cell-based; conditions: 25 μM NES inhibitor; for Nuclear export of topo IIα by immunofluorescence: 20 hours, high-density (plateau) MM cells; for Fold-increase nuclear topo IIα: H929 cells, nucleus v cytoplasm fluorescence vs untreated high-density controls
T1 construct: effect on the intracellular location of topo IIα in treated MM cells; endogenous in cells; host or cells: human multiple myeloma cells NCI-H929
T1 sequence (P11388 whole entry): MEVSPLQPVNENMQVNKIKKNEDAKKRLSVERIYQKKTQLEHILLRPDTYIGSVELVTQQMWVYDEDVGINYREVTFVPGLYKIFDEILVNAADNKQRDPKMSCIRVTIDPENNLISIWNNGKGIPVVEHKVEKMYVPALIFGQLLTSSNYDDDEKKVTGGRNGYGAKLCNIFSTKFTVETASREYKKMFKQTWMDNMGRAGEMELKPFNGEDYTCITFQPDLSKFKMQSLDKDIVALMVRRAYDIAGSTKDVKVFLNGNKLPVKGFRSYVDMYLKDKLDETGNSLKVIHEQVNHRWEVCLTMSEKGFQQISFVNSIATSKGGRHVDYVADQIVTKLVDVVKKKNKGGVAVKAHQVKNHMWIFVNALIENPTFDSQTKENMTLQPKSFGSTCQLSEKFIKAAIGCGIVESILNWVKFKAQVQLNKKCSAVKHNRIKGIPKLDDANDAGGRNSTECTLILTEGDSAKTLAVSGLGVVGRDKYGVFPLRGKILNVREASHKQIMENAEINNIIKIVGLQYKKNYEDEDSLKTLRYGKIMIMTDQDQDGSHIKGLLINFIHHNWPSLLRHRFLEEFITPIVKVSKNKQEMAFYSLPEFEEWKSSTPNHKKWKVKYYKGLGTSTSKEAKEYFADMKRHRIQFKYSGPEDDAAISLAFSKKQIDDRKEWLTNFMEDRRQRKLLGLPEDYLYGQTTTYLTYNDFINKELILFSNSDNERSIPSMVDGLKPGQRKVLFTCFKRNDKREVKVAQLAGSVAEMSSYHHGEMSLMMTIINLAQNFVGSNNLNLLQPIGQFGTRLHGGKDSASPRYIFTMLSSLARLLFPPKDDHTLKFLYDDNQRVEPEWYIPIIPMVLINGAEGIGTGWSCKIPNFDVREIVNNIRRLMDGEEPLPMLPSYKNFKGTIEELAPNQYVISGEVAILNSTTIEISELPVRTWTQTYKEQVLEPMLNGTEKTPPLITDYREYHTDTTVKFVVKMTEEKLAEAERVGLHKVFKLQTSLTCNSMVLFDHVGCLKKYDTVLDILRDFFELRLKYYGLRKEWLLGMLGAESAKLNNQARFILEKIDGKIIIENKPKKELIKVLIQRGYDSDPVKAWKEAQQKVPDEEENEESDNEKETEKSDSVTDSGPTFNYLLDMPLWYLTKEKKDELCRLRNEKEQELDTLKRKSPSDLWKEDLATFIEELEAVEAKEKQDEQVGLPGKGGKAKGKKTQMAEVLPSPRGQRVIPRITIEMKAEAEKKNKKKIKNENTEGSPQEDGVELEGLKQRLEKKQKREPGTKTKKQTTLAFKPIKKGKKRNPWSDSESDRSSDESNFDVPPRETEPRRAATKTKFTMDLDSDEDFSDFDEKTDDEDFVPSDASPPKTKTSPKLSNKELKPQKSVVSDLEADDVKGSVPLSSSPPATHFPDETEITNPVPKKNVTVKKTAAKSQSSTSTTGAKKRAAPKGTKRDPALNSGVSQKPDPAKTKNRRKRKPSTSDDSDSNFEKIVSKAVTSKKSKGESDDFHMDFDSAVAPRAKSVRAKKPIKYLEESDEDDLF
Method: Slides were viewed with a fully automated, upright Zeiss Axio-ImagerZ.1 microscope (Carl Zeiss A G, Oberkochen, Germany). Briefly, the DAPI image was used as a mask to segment the nuclear region from the Alexa 594 image. The remaining portion of the Alexa 594 image represents the cytosol, and individual nucleus and cytosol images were analyzed.
H929 cells were mock treated with 0.1% DMSO in media or with 25 μM of NES inhibitor. The high density control cells, seen in FIG. 9(A) show high levels of topo II staining outside the nucleus, evidencing export of topo II from the nucleus.

[2] = tested on: high-density MM cells (H929); experiment: Cleaved caspase 3 apoptosis assay, sensitization to doxorubicin; conditions: for Sensitization of high-density MM cells to doxorubicin / synergism: 25 μM NES inhibitor, doxorubicin 2 μM; for Fold-Increased sensitization to dox: dox/drug (dox 2 μM) divided by dox alone
[3] = for 1 hour; cited from earlier work
[4] = in vivo; cited from earlier work
topo IIα [5] = conditions: cited from earlier work
RPMI-8226 (8226) = experiment: CT-Glo cytotoxicity assay, 8226 cells; format: cell-based, human; conditions: 8226 cells, 72-h CT-Glo, log-phase (low-density), average ± SD, read-out: IC50
Text: (§1) Compounds identified in Example 1 as the top scoring potential inhibitors for each of the two NES (20 each) were obtained from NCI and structures of these molecules confirmed using NMR and mass spectroscopy analysis, seen in FIGS. 4(A)-(C) and 5(A)-(D). The potential inhibitors were followed up using in vitro model cell cultures. MM cell lines NCI-H929 (H929) and RPMI-8226 (8226) were obtained from and tested for authenticity by the American Type Culture Collection (Manassas, Va.). All cell lines were grown as described previously (Turner, et al., Human topoisomerase IIalpha nuclear export is mediated by two CRM-1-dependent nuclear export signals. J Cell Sci 2004; 117: 3061-71).
(§2) The molecules with the highest docking scores were assayed for IC50 values. Cultures were tested for cytotoxicity using the CellTiter-Glo assay (CT-Glo cytotoxicity assay; Promega, Madison, Wis.), a luminescence-based homogeneous method for determining the number of viable cells in culture based on quantitation of the ATP present, which signals the presence of metabolically active cells (Corsino, et al., A novel class of cyclin-dependent kinase inhibitors identified by molecular docking act through a unique mechanism. J Biol Chem 2009; 284: 29945-55; Homsi, et al., Src activation in melanoma and Src inhibitors as therapeutic agents in melanoma. Melanoma Res 2009; 19: 167-75). All cells were assayed at log-phase growth conditions. Luminescence was measured with a Synergy 4 microplate reader (Bio-Tek Instruments, Inc., Winooski, Vt.). IC50 values were determined using a sigmoidal equilibrium model regression using XLfit version 5.2 (ID Business Solutions Ltd., Surrey, UK) (Corsino, et al., A novel class of cyclin-dependent kinase inhibitors identified by molecular docking act through a unique mechanism. J Biol Chem 2009; 284: 29945-55).

NCI-H929 (H929) = experiment: CT-Glo cytotoxicity assay, H929 cells; format: cell-based, human; conditions: average ± SD
Text: as §1, §2

HL-60 = experiment: CT-Glo cytotoxicity assay, HL-60 cells; format: cell-based; conditions: 72-h CT-Glo
Method: as §2

Kg-1a = experiment: CT-Glo cytotoxicity assay, Kg-1a cells; format: cell-based; conditions: 72-h CT-Glo
Method: as §2

MCF-7 = experiment: CT-Glo cytotoxicity assay, MCF-7 cells; format: cell-based; conditions: average ± SD
Method: as §2

SK-UT = experiment: CT-Glo cytotoxicity assay, SK-UT cells; format: cell-based; conditions: 72-h CT-Glo, average ± SD
Method: as §2

FLOW = experiment: CT-Glo cytotoxicity assay, FLOW cells; format: cell-based; conditions: 72-h CT-Glo, average ± SD
Method: as §2

WI-38 = experiment: CT-Glo cytotoxicity assay, WI-38 cells; format: cell-based; conditions: 72-h CT-Glo
Method: as §2

PBMC = experiment: CT-Glo cytotoxicity assay, PBMC; format: cell-based; conditions: 72-h CT-Glo, average ± SD
Method: as §2

topo IIα [6] = molecular target: T1, topo IIα; experiment: Nuclear-cytoplasmic fractionation and Western blot for topo IIα; format: cell-based; conditions: high-density RPMI-H929 cells, 25 μM, FIG. 13 legend
Method: FIGS. 13(A) and (B) are blots from nuclear (nuc)-cytoplasmic (cyto) fractionation of high-density MM cells (n=2). […] Human myeloma RPMI-H929 cells were treated for 24 hours. Cells were then chemically separated into nuclear and cytoplasmic fractions.
Human myeloma cells were placed at plateau concentrations (4×10^6 cells/ml), and NES inhibitors were added at 25 μM for 20 hours. Cells were collected, washed in PBS, and fractionated by a method adapted from Li et al. (Li Y, Bor Y C, Misawa Y, Xue Y, Rekosh D, Hammarskjold M L. An intron with a constitutive transport element is retained in a Tap messenger RNA. Nature 2006; 443: 234-7). Separated fractions containing nuclei or precipitated cytosol were dissolved in 2% SDS buffer and assayed by SDS-PAGE Western blot analysis. Blots were probed with an anti-topo IIα Kis1 antibody (Millipore Corp.). […] Cells grown at log-phase concentrations were also fractionated. After MM cells were treated with NCI-9138 at 25 μM for 20 hours, CRM1-topo IIα complexes were isolated from cells by immunoprecipitation using a combination of both protein A and protein G magnetic beads according to the manufacturer's protocol (Miltenyi Biotec, Cologne, Germany). Co-immunoprecipitation was performed with 2 μg of anti-CRM1 antibody (Santa Cruz Biotechnology, Inc., Santa Cruz, Calif.). Immunoprecipitation samples were separated by SDS-PAGE, transferred to nitrocellulose membranes, and probed with anti-topo IIα Kis1 antibody (Millipore, Corp., Billerica, Mass.) and anti-mouse horseradish peroxidase secondary antibody.

p53 = p53 nuclear export in low-density myeloma cells (nuclear fraction Western blot); format: cell-based, human; conditions: H929 at low density (log growth), 25 μM, 20 hours
Method: FIG. 14 is a blot of lead compounds tested to determine if nuclear export inhibition was specific to topo IIα protein. p53 was cycled from the nucleus into the cytoplasm in MM cells cultured at log growth conditions. Cells grown at log-phase concentrations were treated with the lead NES inhibitors (25 μM) or a leptomycin control for 20 hours and chemically fractionated. Nuclei were assayed by SDS-PAGE Western blot analysis for p53 protein (anti-p53 (DO-1), Santa Cruz Biotech, Inc). […] Lamin A/C (anti-lamin A/C, BD Pharmingen) is shown as a loading control.
Cells grown at low concentrations were treated with the lead NES inhibitors (25 μM) or a leptomycin B (5 nM) control for 20 hours and chemically fractionated. Nuclei were assayed by SDS-PAGE Western blot analysis for p53 protein.

topo IIα [7] = molecular target: T1, topo IIα; experiment: Nuclear-cytoplasmic fractionation and Western blot for topo IIα; format: cell-based; conditions: RPMI-H929 cells, 100 μM, 24 hours, relative to untreated controls
[8] = Homo sapiens, NCI-H929, 72-h CT-Glo
[9] = Homo sapiens, MCF7, 72-h CT-Glo

| Compound | Nuclear export of topo IIα by immunofluorescence (topo IIα [1]) | Sensitization of high-density MM cells to doxorubicin / synergism [2] | IC50 (SK-UT) [µM] | IC50 (FLOW) [µM] | Export of topo IIα, nuclear-cytoplasmic fractionation (topo IIα [6]) | Nuclear export of p53 (p53) | Cytoplasmic level / nuclear localization of topo IIα, fractionation Western blot (topo IIα [7]) | Fold-Increased sensitization to dox [2] [fold] | also measured |
| --- | --- | --- | --- | --- | --- | --- | --- | --- | --- |
| O=C(C[N+]12CN3CN(CN(C3)C1)C2)c1ccc2ccccc2c1 [NCI-36400, 1-(2-naphthyl)-2-(15,3,5,7-tetraazatricyclo[3.3.1.1~3,7~]dec-1-yl)ethanone] | prevent nuclear export of Topo IIα | significantly (p<0.05) sensitize high density MM cells to doxorubicin | – | – | – | – | – | – | – |
| CCC(=C/[C@H](C)C/C=C/C(C)=C/[C@@H](C)C(=O)[C@@H](C)[C@H](O)[C@@H](C)C/C(C)=C/C(=O)O)/C=C/[C@@H]1OC(=O)C=C[C@@H]1C [leptomycin B] | – | – | – | – | – | – | – | – | Concentration with acute toxicity in vitro [3]: < 5 nmol/L; Toxicity in human phase I trial [4]: acute relative toxicities; Export mediated by topo IIα NES site A and site B (topo IIα [5]): blocked |
| Brc1ccc(C[N+]23CN4CN(CN(C4)C2)C3)cc1 [NCI-80640, 1-(4-bromobenzyl)-15,3,5,7-tetraazatricyclo[3.3.1.1~3,7~]decane] | overlapping staining of topo II with DAPI | synergized with the topo II inhibitor doxorubicin | 25.5 | 35.6 | smaller or little effect on topo II nucleus export inhibition | significantly inhibit nuclear export of p53 | reduced cytoplasmic levels of topo IIα equivalent to that produced by the CRM-1 inhibitor ratjadone C | 2.42 ± 1.09 | IC50 (RPMI-8226 (8226); Homo sapiens, RPMI-8226): 12 ± 4.2 µM; IC50 (NCI-H929 (H929); [8]): 16.2 µM; IC50 (HL-60; Homo sapiens): 11.9 µM; IC50 (Kg-1a; Homo sapiens): 15.2 µM; IC50 (MCF-7; [9]): 25.9 µM; IC50 (WI-38; Homo sapiens): 56.3 µM; IC50 (PBMC): 16.4 µM |
| O/N=C(/C[N+]12CN3CN(CN(C3)C1)C2)c1ccc(I)cc1 [NCI-35024, 1-(4-iodophenyl)-2-(15,3,5,7-tetraazatricyclo[3.3.1.1~3,7~]dec-1-yl)ethanone oxime] | prevent nuclear export of Topo IIα | significantly (p<0.05) sensitize high density MM cells to doxorubicin | – | – | – | – | – | – | – |
| Clc1cc(Cl)c(C[N+]23CN4CN(CN(C4)C2)C3)cc1Cl [NCI-155877, 1-(2,4,5-trichlorobenzyl)-15,3,5,7-tetraazatricyclo[3.3.1.1~3,7~]decane] | overlapping staining of topo II with DAPI | synergized with the topo II inhibitor doxorubicin | 50.4 | 56.8 | smaller or little effect on topo II nucleus export inhibition | did not prevent export of p53 | did not significantly reduce the level of cytoplasmic topo IIα | 2.82 ± 1.18 | IC50 (RPMI-8226 (8226); Homo sapiens, RPMI-8226): 19.5 ± 5.4 µM; IC50 (NCI-H929 (H929); [8]): 33.6 µM; IC50 (HL-60; Homo sapiens): 20.4 µM; IC50 (Kg-1a; Homo sapiens): 31.4 µM; IC50 (MCF-7; [9]): 37.1 µM; IC50 (WI-38; Homo sapiens): 136 µM; IC50 (PBMC): 37.2 µM; Fold-increase nuclear topo IIα (topo IIα [1]): 3.92 fold |
| O=C(Nc1ccc(C2=NCCN2)cc1)c1ccc(C(=O)Nc2ccc(C3=NCCN3)cc2)c([N+](=O)[O-])c1 [NCI-35847, N1,N4-bis(4-(4,5-dihydro-1H-imidazol-2-yl)phenyl)-2-(hydroxy(oxido)amino)terephthalamide] | prevent nuclear export of Topo IIα; also recorded: overlapping staining of topo II with DAPI | synergized with the topo II inhibitor doxorubicin; also recorded: significantly (p<0.05) sensitize high density MM cells to doxorubicin | 55.3 | 62.8 | strongly blocked export of topo IIα | did not prevent export of p53 | reduced cytoplasmic levels of topo IIα equivalent to that produced by the CRM-1 inhibitor ratjadone C | 2.65 ± 0.90 | IC50 (RPMI-8226 (8226)): 7.2 ± 1.4 µM; IC50 (NCI-H929 (H929); 72-h CT-Glo): 13.9 µM; IC50 (HL-60): 36.5 µM; IC50 (Kg-1a): 73.8 µM; IC50 (MCF-7; 72-h CT-Glo): 68.5 µM; IC50 (WI-38): 199 µM; Fold-increase nuclear topo IIα (topo IIα [1]): 2.81 fold |
| Ratjadone C [reference compound] | – | – | – | – | prevented nuclear export | – | – | – | – |
| O=C(C[N+]12CN3CN(CN(C3)C1)C2)c1ccc(Br)cc1 [NCI-32237, 1-(4-bromophenyl)-2-(15,3,5,7-tetraazatricyclo[3.3.1.1~3,7~]dec-1-yl)ethanone] | – | – | – | – | did not affect nuclear export of topo II | – | did not affect nuclear export of topo II | – | – |
